From US8623326B2 (University of Western Ontario, priority 2008, dated 2014) come the findings set out here.

Where a SMILES comes first, the peptide text is derived from it. [ ]: non-standard residue; d: D form. The star is where a group is joined. Dap = NC[C@H](N)C(=O)O; X1 = O=C(CCCCCF)*

The assay deals with T1, GHSR (Homo sapiens, UniProt Q92847).
T1 construct: expressed in transfected cells; host or cells: CHO-K1
The experiment in a line: Radioligand binding assay (125I-ghrelin displacement). As to conditions: 125I-ghrelin (human) radioligand; for IC50: read-out: IC50 (nM), binding affinity of fluorine bearing ghrelin analogues, human recombinant CHO-K1 cells as receptor source, 18a-c semi-quantitative from % inhibition at 10^-5 to 10^-8 M, duplicated.

T1 sequence (Q92847 whole entry): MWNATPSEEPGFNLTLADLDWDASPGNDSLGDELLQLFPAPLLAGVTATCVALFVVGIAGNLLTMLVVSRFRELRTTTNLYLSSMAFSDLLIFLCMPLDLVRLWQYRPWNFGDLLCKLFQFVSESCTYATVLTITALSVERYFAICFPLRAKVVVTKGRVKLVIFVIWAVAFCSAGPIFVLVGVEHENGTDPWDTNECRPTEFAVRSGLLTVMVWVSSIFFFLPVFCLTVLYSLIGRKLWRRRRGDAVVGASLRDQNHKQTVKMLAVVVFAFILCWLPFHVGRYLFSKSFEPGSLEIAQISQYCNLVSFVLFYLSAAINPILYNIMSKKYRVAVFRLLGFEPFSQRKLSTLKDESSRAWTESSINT
Protocol: Radioligand Binding Assay.
IC50 values were determined by a non-linear, least squares regression analysis using MathIQ™ (ID Business Solutions Ltd., UK).

Broadly, the inhibition is the share of the control response that was lost under treatment. A high value points to a strong effect. For the setting “at 2000 nM”, `CC(C)C[C@H](NC(=O)[C@H](Cc1ccccc1)NC(=O)[C@H](CNC(=O)CCCCCF)NC(=O)[C@H](CO)NC(=O)CN)C(N)=O` [Cmpd 17, Ghrelin(1-5)-6C—F] (H-GS[Dap](X1)FL-NH2) showed an inhibition at 2 µM of roughly 20%.

Usually IC50 stands for the concentration at which inhibition is half-maximal. In the case of `CC(C)C[C@H](NC(=O)[C@H](Cc1ccccc1)NC(=O)[C@H](CNC(=O)CCCCCF)NC(=O)[C@H](CO)NC(=O)CN)C(=O)N[C@@H](CO)C(=O)N1CCC[C@H]1C(=O)N[C@@H](CCC(=O)O)C(=O)N[C@@H](Cc1c[nH]cn1)C(=O)N[C@@H](CCC(N)=O)C(=O)N[C@@H](CCCNC(=N)N)C(=O)N[C@H](C(=O)N[C@@H](CCC(N)=O)C(=O)N[C@@H](CCC(N)=O)C(N)=O)C(C)C` [Cmpd 18a, Ghrelin(1-14)-6C—F], the IC50 was found to be 147 nM.

For the compound `CC(C)C[C@H](NC(=O)[C@H](Cc1ccccc1)NC(=O)[C@H](CNC(=O)CCCCCCCCF)NC(=O)[C@H](CO)NC(=O)CN)C(=O)N[C@@H](CO)C(=O)N1CCC[C@H]1C(=O)N[C@@H](CCC(=O)O)C(=O)N[C@@H](Cc1c[nH]cn1)C(=O)N[C@@H](CCC(N)=O)C(=O)N[C@@H](CCCNC(=N)N)C(=O)N[C@H](C(=O)N[C@@H](CCC(N)=O)C(=O)N[C@@H](CCC(N)=O)C(N)=O)C(C)C` [Cmpd 18b, Ghrelin(1-14)-9C—F], the IC50 was 39.6 nM.

As to `CC(C)C[C@H](NC(=O)[C@H](Cc1ccccc1)NC(=O)[C@H](CNC(=O)CCCCCCCCCCCF)NC(=O)[C@H](CO)NC(=O)CN)C(=O)N[C@@H](CO)C(=O)N1CCC[C@H]1C(=O)N[C@@H](CCC(=O)O)C(=O)N[C@@H](Cc1c[nH]cn1)C(=O)N[C@@H](CCC(N)=O)C(=O)N[C@@H](CCCNC(=N)N)C(=O)N[C@H](C(=O)N[C@@H](CCC(N)=O)C(=O)N[C@@H](CCC(N)=O)C(N)=O)C(C)C` [Cmpd 18c, Ghrelin(1-14)-12C—F], the IC50 is 27.9 nM.
